According to US20230122344A1, “ANTAGONISTS OF THE MUSCARINIC ACETYLCHOLINE RECEPTOR M4” (Vanderbilt University, priority 2019, published 2023):

Target: T1, Human M4 (Homo sapiens, UniProt P08173)
T1 construct: expressed in transfected cells; host or cells: CHO-K1 (ATCC), co-transfected with chimeric G protein Gqi5
T1 sequence (P08173 1-479): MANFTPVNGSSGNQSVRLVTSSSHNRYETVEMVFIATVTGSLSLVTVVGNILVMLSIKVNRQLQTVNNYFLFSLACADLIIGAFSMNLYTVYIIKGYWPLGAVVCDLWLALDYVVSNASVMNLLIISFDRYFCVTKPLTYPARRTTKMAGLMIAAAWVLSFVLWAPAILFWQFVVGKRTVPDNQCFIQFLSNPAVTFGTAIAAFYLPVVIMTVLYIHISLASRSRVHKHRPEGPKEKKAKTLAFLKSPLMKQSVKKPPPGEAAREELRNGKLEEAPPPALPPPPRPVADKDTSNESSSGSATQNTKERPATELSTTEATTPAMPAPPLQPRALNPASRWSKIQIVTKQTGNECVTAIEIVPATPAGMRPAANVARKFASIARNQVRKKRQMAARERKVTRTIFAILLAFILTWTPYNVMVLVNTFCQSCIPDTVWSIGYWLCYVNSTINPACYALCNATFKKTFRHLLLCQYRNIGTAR
Test: mAChR M4 cell-based functional assay (calcium flux, antagonism of EC80 acetylcholine response)
Settings: M4/Gqi5/CHO-K1 cells; for remaining activity at 30 µM: CHO-K1, % ACh maximum at 30 μM, read-out: Human M4 Emin; for IC50: decrease of response elicited by EC80 acetylcholine
Outline: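 CHO-K1 cells stably expressing human or rat M4 with Gqi5, Fluo-4 loaded; calcium measured by fluorescence ratio on FDSS. Compound added, then EC20 acetylcholine at 143 s and EC80 at 268 s; IC50 from decrease of EC80 response, four-parameter logistic fit.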

| SMILES | remaining activity at 30 µM | IC50 |
| --- | --- | --- |
| Fc1ccc(F)c(-c2cc(C(F)F)c(N[C@H]3C[C@@H]4CN(C[C@@H]5COCCO5)C[C@@H]4C3)nn2)c1 [compound 80, (3aR,5S,6aS)-2-(((R)-1,4-dioxan-2-yl)methyl)-N-(4-(difluoromethyl)-6-(2,5-difluorophenyl)pyridazin-3-yl)octahydrocyclopenta[c]pyrrol-5-amine] | 4% | 5 nM |
| Fc1cc(F)c(F)c(-c2nnc(N[C@H]3C[C@@H]4CN(C[C@H]5COCCO5)C[C@@H]4C3)cc2C(F)F)c1 [compound 57, (3aR,5s,6aS)-2-(((S)-1,4-dioxan-2-yl)methyl)-N-(5-(difluoromethyl)-6-(2,3,5-trifluorophenyl)pyridazin-3-yl)octahydrocyclopenta[c]pyrrol-5-amine] | 3% | 15.5 nM |
| [2H]C(C)(c1ccccn1)N1C[C@H]2C[C@H](Nc3cc(C(F)F)c(-c4cc(F)cc(F)c4F)nn3)C[C@H]2C1 (stereo partly drawn) [compound 51, (3aR,5s,6aS)-N-(5-(difluoromethyl)-6-(2,3,5-trifluorophenyl)pyridazin-3-yl)-2-(1-(pyridin-2-yl)ethyl-1-d)octahydrocyclopenta[c]pyrrol-5-amine] | 2% | 35 nM |
| Cn1cc2cc(-c3cc(C(F)F)c(N[C@H]4C[C@@H]5CN(CC6CCOCC6)C[C@@H]5C4)nn3)ccc2n1 [compound 83, (3aR,5s,6aS)-N-(4-(difluoromethyl)-6-(2-methyl-2H-indazol-5-yl)pyridazin-3-yl)-2-((tetrahydro-2H-pyran-4-yl)methyl)octahydrocyclopenta[c]pyrrol-5-amine] | 5% | 2.3 nM |
| Cc1ccc(F)cc1-c1cc(S(C)(=O)=O)c(N[C@H]2C[C@@H]3CN(CC4CCOCC4)C[C@@H]3C2)nn1 [compound 9, (3aR,5s,6aS)-N-(6-(5-fluoro-2-methylphenyl)-4-(methylsulfonyl)pyridazin-3-yl)-2-((tetrahydro-2H-pyran-4-yl)methyl)octahydrocyclopenta[c]pyrrol-5-amine] | 3% | 18.4 nM |
| CC1(CN2C[C@H]3C[C@H](Nc4nnc(-c5cc(F)ccc5F)cc4C(F)F)C[C@H]3C2)CCOCC1 [compound 79, (3aR,5s,6aS)-N-(4-(difluoromethyl)-6-(2,5-difluorophenyl)pyridazin-3-yl)-2-((4-methyltetrahydro-2H-pyran-4-yl)methyl)octahydrocyclopenta[c]pyrrol-5-amine] | 4% | 110 nM |
| [2H]C([2H])(C1CCOCC1)N1C[C@H]2C[C@H](Nc3nnc(-c4ccc(F)cc4)c(C)c3C)C[C@H]2C1 [compound 70, (3aR,5s,6aS)-N-(6-(4-fluorophenyl)-4,5-dimethylpyridazin-3-yl)-2-((tetrahydro-2H-pyran-4-yl)methyl-d2)octahydrocyclopenta[c]pyrrol-5-amine] | 11% | 24.1 nM |
| [2H]C([2H])(C1CCOCC1)N1C[C@H]2C[C@H](Nc3nnc(-c4ccccc4F)c(C)c3C)C[C@H]2C1 [compound 61, (3aR,5s,6aS)-N-(6-(2-fluorophenyl)-4,5-dimethylpyridazin-3-yl)-2-((tetrahydro-2H-pyran-4-yl)methyl-d2)octahydrocyclopenta[c]pyrrol-5-amine] | 2% | 0.52 nM |
| Fc1cc(F)c(F)c(-c2nnc(N[C@H]3C[C@@H]4CN(CC5CCCCO5)C[C@@H]4C3)cc2C(F)F)c1 (single isomer, unassigned) [compound 46] | 3% | 1.98 nM |
| Cc1cc(N[C@H]2C[C@@H]3CN(CC4CCOCC4)C[C@@H]3C2)nnc1-c1ccc2nn(C)cc2c1C [compound 16, (3aR,5s,6aS)-N-(6-(2,4-dimethyl-2H-indazol-5-yl)-5-methylpyridazin-3-yl)-2-((tetrahydro-2H-pyran-4-yl)methyl)octahydrocyclopenta[c]pyrrol-5-amine] | 3% | 1.08 nM |
| COc1cc(-c2ccc(F)cc2)nnc1N[C@H]1C[C@@H]2CN(CC3CCOCC3)C[C@@H]2C1 [compound 3, (3aR,5s,6aS)-N-(6-(4-fluorophenyl)-4-methoxypyridazin-3-yl)-2-((tetrahydro-2H-pyran-4-yl)methyl)octahydrocyclopenta[c]pyrrol-5-amine] | 5% | 48.4 nM |
| Cc1ccc(F)cc1-c1nnc(N[C@H]2C[C@@H]3CN(CC4CCOCC4)C[C@@H]3C2)cc1C [compound 12, (3aR,5s,6aS)-N-(6-(5-fluoro-2-methylphenyl)-5-methylpyridazin-3-yl)-2-((tetrahydro-2H-pyran-4-yl)methyl)octahydrocyclopenta[c]pyrrol-5-amine] | 2% | 2.55 nM |
| Cc1c(-c2ccc3nn(C)cc3c2)nnc(N[C@H]2C[C@@H]3CN(CC4CCOCC4)C[C@@H]3C2)c1C#N [compound 72, 5-methyl-6-(2-methyl-2H-indazol-5-yl)-3-(((3aR,5s,6aS)-2-((tetrahydro-2H-pyran-4-yl)methyl)octahydrocyclopenta[c]pyrrol-5-yl)amino)pyridazine-4-carbonitrile] | 4% | 0.91 nM |
| Cc1ccc(F)cc1-c1nnc(N[C@H]2C[C@@H]3CN(CC4CCOCC4)C[C@@H]3C2)cc1C(F)F [compound 43, (3aR,5s,6aS)-N-(5-(difluoromethyl)-6-(5-fluoro-2-methylphenyl)pyridazin-3-yl)-2-((tetrahydro-2H-pyran-4-yl)methyl)octahydrocyclopenta[c]pyrrol-5-amine] | 2% | 0.57 nM |

The next lines start with the values.

| remaining activity at 30 µM | IC50 | SMILES |
| --- | --- | --- |
| 3% | 1 nM | [2H]C([2H])(C1CCOCC1)N1C[C@H]2C[C@H](Nc3nnc(-c4cc(F)ccc4F)cc3C)C[C@H]2C1 [compound 11, (3aR,5s,6aS)-N-(6-(2,5-difluorophenyl)-4-methylpyridazin-3-yl)-2-((tetrahydro-2H-pyran-4-yl)methyl-d2)octahydrocyclopenta[c]pyrrol-5-amine] |
| 2% | 159 nM | [2H]C([2H])(C1CCOCC1)N1C[C@H]2C[C@H](Nc3nnc(-c4cc(F)ccc4C)c(C)c3C(F)(F)F)C[C@H]2C1 [compound 74, (3aR,5s,6aS)-N-(6-(5-fluoro-2-methylphenyl)-5-methyl-4-(trifluoromethyl)pyridazin-3-yl)-2-((tetrahydro-2H-pyran-4-yl)methyl-d2)octahydrocyclopenta[c]pyrrol-5-amine] |
| 3% | 2.76 nM | [2H]C([2H])(C1CCOCC1)N1C[C@H]2C[C@H](Nc3cc(C(F)F)c(-c4cc(F)ccc4C)nn3)C[C@H]2C1 [compound 32, (3aR,5s,6aS)-N-(5-(difluoromethyl)-6-(5-fluoro-2-methylphenyl)pyridazin-3-yl)-2-((tetrahydro-2H-pyran-4-yl)methyl-d2)octahydrocyclopenta[c]pyrrol-5-amine] |
| 2% | 116 nM | [2H]C([2H])(C1CCOCC1)N1C[C@H]2C[C@H](Nc3nnc(-c4cc(F)ccc4F)cc3C3CCC3)C[C@H]2C1 [compound 30, (3aR,5s,6aS)-N-(4-cyclobutyl-6-(2,5-difluorophenyl)pyridazin-3-yl)-2-((tetrahydro-2H-pyran-4-yl)methyl-d2)octahydrocyclopenta[c]pyrrol-5-amine] |
| 3% | 20.9 nM | [2H]C([2H])(C1CCOCC1)N1C[C@H]2C[C@H](Nc3nnc(-c4cc(F)ccc4F)c(C)c3C(F)(F)F)C[C@H]2C1 [compound 75, (3aR,5s,6aS)-N-(6-(2,5-difluorophenyl)-5-methyl-4-(trifluoromethyl)pyridazin-3-yl)-2-((tetrahydro-2H-pyran-4-yl)methyl-d2)octahydrocyclopenta[c]pyrrol-5-amine] |
| 3% | 0.59 nM | [2H]C([2H])(C1CCOCC1)N1C[C@H]2C[C@H](Nc3nnc(-c4ccc5nn(C)cc5c4C)cc3C)C[C@H]2C1 [compound 23, (3aR,5s,6aS)-N-(6-(2,4-dimethyl-2H-indazol-5-yl)-4-methylpyridazin-3-yl)-2-((tetrahydro-2H-pyran-4-yl)methyl-d2)octahydrocyclopenta[c]pyrrol-5-amine] |
| 3% | 0.54 nM | [2H]C([2H])(C1CCOCC1)N1C[C@H]2C[C@H](Nc3nnc(-c4cc(F)ccc4C)cc3C)C[C@H]2C1 [compound 20, (3aR,5s,6aS)-N-(6-(5-fluoro-2-methylphenyl)-4-methylpyridazin-3-yl)-2-((tetrahydro-2H-pyran-4-yl)methyl-d2)octahydrocyclopenta[c]pyrrol-5-amine] |
| 4% | 1030 nM | [2H]C([2H])(C1CCOCC1)N1C[C@H]2C[C@H](Nc3nnc(-c4cc(F)cc(F)c4F)cc3C(C)(C)C)C[C@H]2C1 [compound 36, (3aR,5s,6aS)-N-(4-(tert-butyl)-6-(2,3,5-trifluorophenyl)pyridazin-3-yl)-2-((tetrahydro-2H-pyran-4-yl)methyl-d2)octahydrocyclopenta[c]pyrrol-5-amine] |
